# In patent US10806761B2, “Oncolytic HSV1 vector and methods of use” (THE BRIGHAM AND WOMEN'S HOSPITAL, INC., priority 2015, dated 2020):
# System: gliomas
# Settings: single dose administered two days before rQNestin34.5v.2
# Description: Mammals are able to rapidly counteract HSV1 in the brain through their initial immune responses.
structure (smiles),measurement,value
O=P1(N(CCCl)CCCl)NCCCO1 (centres unmarked) [cyclophosphamide],"effect on viral biodistribution, replication and efficacy","significantly enhances viral biodistribution, replication and efficacy"
same,reduction of the dose of virus required to produce a survival effect,two orders of magnitude
